Reference: ChEMBL document CHEMBL5260858, “Targeting mycobacterial membranes and membrane proteins: Progress and limitations” (Bioorg Med Chem, 2023)
In brackets after ≈: the same amount, converted by molar mass.

Columns and labels:
[1] = system: Mycobacterium tuberculosis; experiment: Antitubercular activity against Mycobacterium tuberculosis H37Rv expressing GFP assessed as bacterial growth inhibition by measuring GFP fluorescence incubated for 72 hrs by fluorescence analysis; format: functional
[2] = system: Mycobacterium tuberculosis; experiment: Antitubercular activity against Mycobacterium tuberculosis H37Rv ATCC 27294 assessed as bacterial growth inhibition by resazurin microtiter assay; format: functional
[3] = system: Mycobacterium tuberculosis; experiment: Antitubercular activity against Mycobacterium tuberculosis H37Rv ATCC 27294 infected in mouse J774 cells assessed as intracellular bacterial growth inhibition incubated for by resazurin microtiter assay; format: functional
[4] = molecular target: T1, Decaprenylphosphoryl-beta-D-ribose oxidase (Mycobacterium tuberculosis (strain ATCC 25618 / H37Rv), UniProt P9WJF1); experiment: Inhibition of Mycobacterium tuberculosis H37Rv DprE1 assessed as formation of resorufin using farnesyl-phosphoryl-beta-D-ribofuranose by AmplexRed reagent based fluorescence assay
T1 sequence (P9WJF1 whole entry): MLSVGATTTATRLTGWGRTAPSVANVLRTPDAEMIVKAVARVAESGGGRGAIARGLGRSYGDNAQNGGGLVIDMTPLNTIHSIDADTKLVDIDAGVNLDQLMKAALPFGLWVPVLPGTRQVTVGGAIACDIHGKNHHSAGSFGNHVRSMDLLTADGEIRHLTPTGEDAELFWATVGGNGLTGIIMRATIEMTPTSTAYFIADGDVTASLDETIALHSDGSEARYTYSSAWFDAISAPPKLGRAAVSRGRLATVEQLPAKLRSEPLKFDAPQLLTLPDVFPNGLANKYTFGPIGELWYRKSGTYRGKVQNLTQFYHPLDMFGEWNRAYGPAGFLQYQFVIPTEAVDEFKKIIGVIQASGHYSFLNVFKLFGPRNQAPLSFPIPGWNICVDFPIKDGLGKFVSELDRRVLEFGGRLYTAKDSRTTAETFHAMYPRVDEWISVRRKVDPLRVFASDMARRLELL

[5] = system: Mycobacterium tuberculosis; experiment: Antimycobacterial activity against Mycobacterium tuberculosis H37Rv assessed as bacterial growth inhibition incubated for 1 week by resazurin reduction microplate assay; format: functional; details: 168 h, time 1 weeks
[6] = system: Mycobacterium tuberculosis; experiment: Antitubercular activity against Mycobacterium tuberculosis H37Rv assessed as bacterial growth inhibition incubated for 6 days by resazurin reduction microplate assay; format: functional; details: 144 h, time 6 day
[7] = system: Mycobacterium tuberculosis; experiment: Antitubercular activity against Mycobacterium tuberculosis H37Rv infected in human THP-1 cells assessed as bacterial growth inhibition incubated for 48 hrs by PrestoBlue staining based fluorescence analysis; format: functional, organism-based; details: THP-1, 48 h
[8] = system: Mycobacterium tuberculosis; experiment: Antimycobacterial activity against Mycobacterium tuberculosis H37Rv assessed as bacterial growth inhibition incubated for 6 days by resazurin dye based assay; format: functional; details: 144 h, time 6 day
[9] = system: Mycobacterium tuberculosis; experiment: Antitubercular activity against Mycobacterium tuberculosis assessed as bacterial growth inhibition; format: functional
[10] = system: Mycobacterium tuberculosis; experiment: Antimycobacterial activity against Mycobacterium tuberculosis H37Rv ATCC27294 assessed as bacterial growth inhibition incubated for 7 days by microplate Alamar blue assay; format: functional; details: H37Rv ATCC27294, 168 h, time 7 day
[11] = system: Mycobacterium tuberculosis; experiment: Antitubercular activity against Mycobacterium tuberculosis H37Rv assessed as bacterial growth inhibition incubated for 24 hrs by [14C]-acetate labelling based radiometric analysis; format: functional
[12] = system: Mycobacterium tuberculosis; experiment: Antitubercular activity against Mycobacterium tuberculosis mc2 7000 assessed as bacterial growth inhibition incubated for 6 days by resazurin based fluorescence assay; format: functional; details: mc2 7000, 144 h, time 6 day
[13] = system: Mycobacterium tuberculosis; experiment: Antitubercular activity against Mycobacterium tuberculosis H37Rv assessed as bacterial growth inhibition incubated for 7 days by resazurin reduction microplate assay; format: functional; details: 168 h, time 7 day
[14] = system: Mycobacterium tuberculosis; experiment: Antitubercular activity against Mycobacterium tuberculosis H37Rv assessed as bacterial growth inhibition incubated for 6 days by resazurin based fluorescence assay; format: functional; details: 144 h, time 6 day
[15] = system: Mycobacterium tuberculosis; experiment: Antitubercular activity against Mycobacterium tuberculosis H37Rv infected in BALB/c mouse assessed as reduction in bacterial load at 100 mg/kg, po for 10 days by CFU analysis; format: functional; details: time 10 day
[16] = system: Mycobacterium tuberculosis; experiment: Antitubercular activity against Mycobacterium tuberculosis H37Rv assessed as bacterial growth inhibition by microdilution method; format: functional
[17] = system: Mycobacterium tuberculosis; experiment: Antitubercular activity against Mycobacterium tuberculosis H37Rv infected in human HepG2 cells assessed as bacterial growth inhibition incubated for 4 weeks by resazurin reduction microtiter assay; format: functional, organism-based; details: HepG2, 672 h
[18] = system: Mycobacteroides abscessus; experiment: Antitubercular activity against Mycobacterium abscessus CIP104536 assessed as bacterial growth inhibition incubated 3 to 5 days by resazurin based broth microdilution method; format: functional; details: time 3-5 day
[19] = system: Mycobacterium tuberculosis; experiment: Antitubercular activity against Mycobacterium tuberculosis MDR_CHUV assessed as bacterial growth inhibition by REMA analysis; format: functional
[20] = system: Mycobacterium tuberculosis; experiment: Antitubercular activity against Mycobacterium tuberculosis H37Rv assessed as bacterial growth inhibition; format: functional

Question: With `CC(C)(C)c1ccc(Cn2cnc([N+](=O)[O-])n2)cc1` as the compound, how does the IC90 [1] read?
Answer: Its IC90 is 500 nM.

Question: Which MIC90 [2] does the source give for `COc1ccc(/C=C2/S/C(=N/N=C/c3ccccc3O)NC2=O)cc1` here?
Answer: The MIC90 was 1 µg/mL (≈ 2.83 µM).

Question: And the MIC [3]?
Answer: Its MIC is 4 µg/mL (≈ 11.3 µM).

Question: Which results are given for `C[C@H]1COC2(CCN(c3nc(=O)c4cc(C(F)(F)F)cc(-n5cccc5)c4s3)CC2)O1`?
Answer: IC50 [4]: < 8000 nM; MIC [5]: 0.35 µM (≈ 0.158 µg/mL)

Question: With `O=C(/C=C/c1nccs1)N1CCN(Cc2ccc3c(c2)OCO3)CC1` as the compound, how does the MIC [6] read?
Answer: The MIC was 0.3 µg/mL (≈ 0.839 µM).

Question: What about the IC50 [7] of the same compound?
Answer: The IC50 was 1.8 µg/mL (≈ 5.04 µM).

Question: For `O=c1nc(N2CCN(S(=O)(=O)C3CC3)CC2)sc2c([N+](=O)[O-])cc(C(F)(F)F)cc12`, which MIC [8] is on record?
Answer: The MIC was 0.003 µg/mL (≈ 0.00646 µM).

Question: How did the MIC [9] turn out when `O=C1CCc2c(cccc2OC[C@]2(O)CCN(c3c(F)cc(Cl)cc3F)C[C@H]2O)N1` was run?
Answer: The MIC was 0.0005 µg/mL (≈ 0.00114 µM).

Question: For `O=c1nc(N2CC3CN(Cc4ccc(OC(F)(F)F)cc4)CC3C2)sc2c([N+](=O)[O-])cc(C(F)(F)F)cc12` (stereo not drawn), which MIC [10] is on record?
Answer: The MIC was under 0.035 µM.

Question: `CCS(=O)(=O)N1CCN(c2nc(=O)c3cc(C(F)(F)F)cc([N+](=O)[O-])c3s2)CC1` was tested. Which MIC [8] did it give?
Answer: The MIC was 0.003 µg/mL (≈ 0.00663 µM).

Question: `CCc1ccc([C@H]2C[C@@H](C(F)(F)F)n3ncc(C(=O)NCc4ccc5c(c4)OCO5)c3N2)cc1` was tested. Which MIC [11] did it give?
Answer: Its MIC is 0.16 µM (≈ 0.0756 µg/mL).

Question: How did the MIC [12] turn out when `CNC(=O)c1c(-c2ccccc2)oc2ccc(O)c(CN3CCCCC3)c12` was run?
Answer: Its MIC is 0.2 µM (≈ 0.0729 µg/mL).

Question: `CCNc1nc(SCC)nc2ccccc12` was tested. Which MIC [13] did it give?
Answer: The MIC was 0.05 µg/mL (≈ 0.214 µM).

Question: What about the IC50 [7] of the same compound?
Answer: Its IC50 is 0.011 µg/mL (≈ 0.0471 µM).

Question: Which MIC [10] does the source give for `O=c1nc(N2CC3CN(Cc4ccc(Cl)c(F)c4)CC3C2)sc2c([N+](=O)[O-])cc(C(F)(F)F)cc12` (stereo not drawn) here?
Answer: The MIC was under 0.035 µM.

Question: With `CCc1ccc([C@H]2C[C@@H](C(F)(F)F)n3ncc(C(=O)NCc4ccc(OC)cc4)c3N2)cc1` as the compound, how does the MIC [14] read?
Answer: Its MIC is 0.25 µM (≈ 0.115 µg/mL).

Question: Which results are given for `CCSc1nc(NC)c2cccc(F)c2n1`?
Answer: MIC [13]: 0.04 µg/mL (≈ 0.169 µM); IC50 [7]: 0.013 µg/mL (≈ 0.0548 µM)

Question: `O=C(/C=C/c1cscn1)N1CCN(Cc2ccc3c(c2)OCO3)CC1` was tested. Which MIC [6] did it give?
Answer: The MIC was 0.1 µg/mL (≈ 0.28 µM).

Question: And the Activity [15]?
Answer: Its Activity is 0.6 log10CFU.

Question: And the IC50 [7]?
Answer: The IC50 was 0.2 µg/mL (≈ 0.56 µM).

Question: With `O=c1nc(N2CCN(S(=O)(=O)c3cccs3)CC2)sc2c([N+](=O)[O-])cc(C(F)(F)F)cc12` as the compound, how does the MIC [8] read?
Answer: The MIC was 0.004 µg/mL (≈ 0.0079 µM).

Question: `CCc1ccc([C@H]2C[C@@H](C(F)(F)F)n3ncc(C(=O)NCc4ccc(F)cn4)c3N2)cc1` was tested. Which MIC [11] did it give?
Answer: The MIC was 0.5 µM (≈ 0.224 µg/mL).

Question: For `O=C(/C=C/c1ccccc1)N1CCN(Cc2ccc3c(c2)OCO3)CC1`, which MIC [6] is on record?
Answer: The MIC was 0.2 µg/mL (≈ 0.571 µM).

Question: And the Activity [15]?
Answer: Its Activity is 0.9 log10CFU.

Question: And the IC50 [7]?
Answer: Its IC50 is 0.3 µg/mL (≈ 0.856 µM).

Question: `CCc1ccc([C@H]2C[C@@H](C(F)(F)F)n3ncc(C(=O)NCc4ccc(F)cc4)c3N2)cc1` was tested. Which MIC [11] did it give?
Answer: The MIC was 0.16 µM (≈ 0.0714 µg/mL).

Question: How did the MIC [16] turn out when `COC(=O)c1c(NC(=O)c2c(F)c(F)c(F)c(F)c2F)sc(C(N)=O)c1C` was run?
Answer: The MIC was 0.5 µM.

Question: For `O=C(/C=C/c1ccsc1)N1CCN(Cc2ccc3c(c2)OCO3)CC1`, which IC50 [17] is on record?
Answer: Its IC50 is 0.3 µg/mL (≈ 0.842 µM).

Question: And the MIC [6]?
Answer: Its MIC is 0.1 µg/mL (≈ 0.281 µM).

Question: Which results are given for `CCSc1nc(NC)c2ccccc2n1`?
Answer: MIC [13]: 0.09 µg/mL (≈ 0.41 µM); IC50 [7]: 0.012 µg/mL (≈ 0.0547 µM)

Question: Which MIC99 [18] does the source give for `OC1(c2ccc(Cl)c(C(F)(F)F)c2)CCN(Cc2ccccc2I)CC1` here?
Answer: Its MIC99 is 0.125 µg/mL (≈ 0.252 µM).

Question: `C[C@H]1COC2(CCN(c3nc(=O)c4cc(C(F)(F)F)cc([N+](=O)[O-])c4s3)CC2)O1` [BTZ-043] was tested. Which MIC99 [19] did it give?
Answer: Its MIC99 is 0.002 µg/mL (≈ 0.00464 µM).

Question: With `CN(C)CCCN1c2ccccc2Sc2ccc(Cl)cc21` [CHLORPROMAZINE] as the compound, how does the MIC [9] read?
Answer: Its MIC is 25 µg/mL (≈ 78.4 µM).

Question: `CC(C)/N=c1\cc2n(-c3ccc(Cl)cc3)c3ccccc3nc-2cc1Nc1ccc(Cl)cc1` [CLOFAZIMINE] was tested. Which MIC [20] did it give?
Answer: The MIC was 0.12 µg/mL.

Question: `O=c1nc(N2CCN(CC3CCCCC3)CC2)sc2c([N+](=O)[O-])cc(C(F)(F)F)cc12` [MACOZINONE] was tested. Which MIC99 [20] did it give?
Answer: Its MIC99 is 0.003 µg/mL (≈ 0.00657 µM).

Question: And the MIC99 [19]?
Answer: Its MIC99 is 0.0004 µg/mL (≈ 0.000876 µM).

Question: `NC(=O)c1cnccn1` [PYRAZINAMIDE] was tested. Which MIC [20] did it give?
Answer: Its MIC is 3.12 µg/mL.

Question: For `CCc1nc2ccc(Cl)cn2c1C(=O)NCc1ccc(N2CCC(c3ccc(OC(F)(F)F)cc3)CC2)cc1` [TELACEBEC], which MIC [20] is on record?
Answer: Its MIC is 0.0027 µM.

Question: For `CSc1ccc2c(c1)N(CCC1CCCCN1C)c1ccccc1S2` (stereo not drawn) [THIORIDAZINE], which MIC [20] is on record?
Answer: The MIC was 15 µg/mL.

Question: With `CN1CCN(CCCN2c3ccccc3Sc3ccc(C(F)(F)F)cc32)CC1` [TRIFLUOPERAZINE] as the compound, how does the MIC [9] read?
Answer: The MIC was 5 µg/mL (≈ 12.3 µM).
